Source: US20070117813A1 (priority 2003, published 2007)
Where two headings read alike, the source gives them in different places.

Tests used:
Plasmopara viticola = assay: Activity against peronospora of grapevines caused by Plasmopara viticola; format: in vivo; details: grapevines cultivar Riesling
Description: The active compounds, separately or jointly, were prepared as a stock solution comprising 0.25% by weight of active compound in acetone or DMSO. 1% by weight of the emulsifier Uniperol® EL (wetting agent having emulsifying and dispersant action based on ethoxylated alkylphenols) was added to this solution, and the mixture was diluted with water to the desired concentration.
Use example 2—Activity against peronospora of grapevines caused by Plasmopara viticola
Leaves of potted grapevines of the cultivar “Riesling” were sprayed to runoff point with an aqueous suspension having the concentration of active compounds stated below. The next day, the undersides of the leaves were inoculated with an aqueous zoospore suspension of Plasmopara viticola. The grapevines were then initially placed in a water-vapor-saturated chamber at 24° C. for 48 hours and then in a greenhouse at temperatures between 20 and 30° C. for 5 days. After this period of time, the plants were, to promote sporangiophore eruption, again placed in a humid chamber for 16 hours. The extent of the development of the infection on the undersides of the leaves was then determined visually.
Evaluation was carried out analogously to example 1.

Phytophthora infestans = format: in vivo; details: tomato plants, protective spray, assessed after 6 days

| SMILES | Efficacy in % of the untreated control (Plasmopara viticola; 1 ppm in the spray liquor) [%] | Efficacy in % of the untreated control (Plasmopara viticola; 4 ppm in the spray liquor) [%] | Efficacy in % of the untreated control (Phytophthora infestans; 63 ppm in the spray liquor) [%] | Efficacy in % of the untreated control (Phytophthora infestans; 16 ppm in the spray liquor) [%] | Efficacy in % of the untreated control (Phytophthora infestans; 250 ppm in the spray liquor) [%] |
| --- | --- | --- | --- | --- | --- |
| CC1CCN(c2c(-c3c(F)cc(F)cc3F)c(Cl)nc3ncnn23)CC1 [I, 5-chloro-7-(4-methylpiperidin-1-yl)-6-(2,4,6-trifluorophenyl)-[1,2,4]triazolo[1,5-a]pyrimidine] | 4 | 52 | 9 | – | – |
| C[C@H](Nc1c(-c2c(F)cc(F)cc2F)c(Cl)nc2ncnn12)C(F)(F)F [comparative B] | – | – | 9 | – | – |
| CC1CCN(c2c(-c3c(F)cccc3Cl)c(Cl)nc3ncnn23)CC1 [comparative A] | – | – | 0 | – | – |
| CC(C)(C)C(O)(CCc1ccc(Cl)cc1)Cn1cncn1 (racemic) [II, (R,S)-1-(4-chlorophenyl)-4,4-dimethyl-3-(1H-1,2,4-triazol-1-ylmethyl)pentan-3-ol] | 0 | 28 | – | 0 | 0 |
